Data as given in article PMC7822874, “Chemoprotective antimalarials identified through quantitative high-throughput screening of Plasmodium blood and liver stage parasites” (Scientific Reports, 2021).

experiment: in vitro; conditions: human, hepg2-a16-cd81egfp cells
Note: reference of the scale not given here.

For `C=C1C(=O)O[C@@H]2C[C@@H](C)[C@@H]3C=CC(=O)[C@@]3(C)[C@@H](OC(=O)CC(=O)O[C@H]3[C@@H]4C(=C)C(=O)O[C@@H]4C[C@@H](C)[C@@H]4C=CC(=O)[C@]43C)[C@H]12` [MLS000728515], the viability at 3 µM was 16.4%.

same assay, conditions: human, hepg2-a16-cd81egfp cells, % viability

Point of comparison: `O=[N+]([O-])c1ccc(N2CCN(/C(S)=N/C3CCCCC3)CC2)cc1` [MLS000574247], viability at 3 µM 99.2%. Against it:
- Cc1ccccc1C1C(C#N)=C2N=C(N)c3c(sc4c3CCCCC4)N2C2=C1C(=O)CCC2 (stereo not drawn) [MLS000543544] — lower, 92.6%
- Cc1cc(C)c(C)c(S(=O)(=O)NCc2ccc(C(=O)N3CCCCC3)cc2)c1C [MLS000547926] — lower, 90.2%
- CC1CCN(S(=O)(=O)c2ccc3c(c2)C(=NO)c2cc(S(=O)(=O)N4CCC(C)CC4)ccc2-3)CC1 [MLS000551434] — lower, 6.86%
- O=c1c2ccccc2nc(N/N=C/c2c(O)ccc3ccccc23)n1O [MLS000551780] — lower, 34.1%
- CCc1c(C)c(C#N)c2nc3ccccc3n2c1NCC1CCCO1 (stereo not drawn) [MLS000556827] — higher, 99.5%
- O=C(NCc1ccccc1)c1onc(CSc2nc3ccccc3[nH]2)c1C(=O)NCc1ccccc1 [MLS000561090] — higher, 105%
- Cc1noc(C)c1CSc1nc2sc3c(c2c(=O)n1C)CCCC3 [MLS000564913] — lower, 89.9%
- O=C(/C(=C/c1ccc(Cl)cc1)c1nc2ccccc2[nH]1)c1cccs1 [MLS000565128] — lower, 79.2%
- CCN(CC)C1=NC(=[N+](CC)CC)c2ccccc21.[O-][Cl+3]([O-])([O-])O [MLS000565348] — lower, 83.4%
- Cc1ccnc2nc(C(=O)Nc3cc(Cl)ccc3N3CCOCC3)nn12 [MLS000567033] — lower, 98.5%
- CC(C)(C)N1C(=O)c2ccc(C(=O)Nc3ccc(-c4nc5ccccc5[nH]4)cc3)cc2C1=O [MLS000567491] — higher, 104%
- CC(=O)N(C)C1=C(N2CCOCC2)C(=O)c2ccccc2C1=O [MLS000570886] — lower, 96.1%
- O=C(NC(c1ccccc1)c1cc(Cl)c2cccnc2c1O)c1cccnc1 (stereo not drawn) [MLS000573359] — lower, 69.7%
- Cc1ccc(Nc2cc(C)nc(NCc3ccccc3)n2)cc1 [MLS000574704] — lower, 80.6%
- CCOc1ccc(C(=O)Nc2ccc(-c3nc4ccccc4[nH]3)cc2)cc1[N+](=O)[O-] [MLS000577721] — higher, 101%
- COc1cccc(C2C3=C(N=c4sc(=Cc5ccccc5O)c(=O)n42)c2ccccc2CC3)c1OC (stereo not drawn) [MLS000580951] — lower, 92.9%
- C=CCNC(=S)N1CCN(c2ccc([N+](=O)[O-])cc2)CC1 [MLS000581348] — higher, 99.6%
- OCC[n+]1ccc(/C=C/c2c[nH]c3ccccc23)cc1 [MLS000585200] — lower, 90.7%
- Cc1ccc(NC2=C/C(=N\S(=O)(=O)c3cccs3)c3ccccc3C2=O)cc1C [MLS000585841] — lower, 81.7%
- Cc1cccc(Nc2cc(C)c3c(O)cccc3n2)c1C [MLS000586980] — lower, 88.1%
- COc1ccc(/C=N/Nc2cc(C)nc(-n3nc(C)cc3C)n2)c(OC)c1 [MLS000589396] — lower, 91%
- Clc1ccc2c(N/N=C/c3ccc(Br)cc3)ccnc2c1 [MLS000589586] — higher, 104%
- Cc1cc(Nc2ccc(Cl)cc2)nc(NCc2ccccc2)n1 [MLS000591025] — lower, 87.8%
- Clc1ncnc2scc(-c3ccc(Br)cc3)c12 [MLS000591637] — higher, 99.5%
- Cc1cc(Nc2cccc(Cl)c2)nc(NCc2ccccc2)n1 [MLS000591844] — lower, 80.9%
- CCOC(=O)c1nc2cc3n(c(CC(C)C)c-2c1C)CC(C)=C3C [MLS000594428] — higher, 105%
- CN1CCN(c2ccc(NC(=O)c3ccc(-c4cccc([N+](=O)[O-])c4)o3)cc2)CC1 [MLS000663772] — higher, 107%
- Cc1ccc(Nc2cc(C)c3ccc(O)cc3n2)cc1C [MLS000674791] — lower, 92.2%
- Oc1ccccc1Nc1nc(NCc2ccccc2)c2ccccc2n1 [MLS000693415] — lower, 90.9%
- N=c1ccn(CC(=O)c2ccc(-c3ccccc3)cc2)cc1 [MLS000698051] — lower, 53.4%
- CN1C2CCC1/C(=C/c1ccccn1)C(=O)/C2=C\c1ccccn1 [MLS000702810] — lower, 83%
- O=C(CCc1ccccc1)NC(c1cccs1)c1cc(Cl)c2cccnc2c1O (stereo not drawn) [MLS000703748] — lower, 54%
- CCOC(=O)c1c(CN(C)C)n(-c2ccc(C)cc2)c2cc(Br)c(O)cc12 [MLS000705141] — lower, 97.3%
- CC1(C)Cc2ccccc2C2=NNC(=O)C2=N1 [MLS000709658] — lower, 94.5%
- CCOC(=O)c1c(NC(=O)C[n+]2ccc(N(C)C)cc2)sc(C)c1C [MLS000710762] — lower, 65.1%
- Cc1cc(C)[n+](C)n1CC(O)Cn1c2ccccc2c2ccccc21 (stereo not drawn) [MLS000711524] — higher, 104%
- C/C(=N\Nc1nc(-c2ccccc2O)nc2ccccc12)c1ccccc1 [MLS000714167] — lower, 93.6%
- CCCC(=O)NC(c1ccccc1OC)c1ccc2cccnc2c1O (stereo not drawn) [MLS000715345] — lower, 55.4%
- CCCC(=O)NC(c1ccc(OC)cc1)c1ccc2cccnc2c1O (stereo not drawn) [MLS000715379] — lower, 59.7%
- CCN(CC)CCN1C(=O)c2ccccc2NC1c1ccc(Br)cc1 (stereo not drawn) [MLS000723891] — lower, 87.8%
- CCOC(=O)c1nnn(-c2nonc2N)c1-c1ccc(Br)cc1 [MLS000727795] — lower, 96.5%
- Cc1ccc(-c2cc(C(F)(F)F)n3ncc(C(=O)N4CCCCC4c4cccnc4)c3n2)cc1 (stereo not drawn) [MLS000729132] — lower, 89.9%
- COc1ccc2c(c1)C=C([C@@H]1C[C@H]3CN(c4ccccc4)C(=O)[C@]34CCCN14)CO2 [MLS000734809] — lower, 95.7%
- O=C(Nc1ccc(C2=NCCN2)cc1)c1ccc(C(=O)Nc2ccc(C3=NCCN3)cc2)c(Cl)c1 [MLS000737368] — lower, 90%
- Cc1ccc(Cl)cc1NC(=O)c1cc2ccccc2cc1O [MLS000738149] — lower, 74%
- CC1(C)N=C(N)N=C(N)N1c1ccc(OCCCOc2ccccc2)c(Cl)c1 [MLS000738223] — lower, 34.6%
- COc1ccc2ccc(O)c(CN3CC=C(c4ccccc4)CC3)c2c1 [MLS000760157] — lower, 97.2%
- CCCC(=O)Nc1sc2c(c1C(=O)Nc1ccccn1)CCCC2 [MLS000765104] — lower, 97.6%
- CCC1(OC(=O)CN)C(=O)OCc2c1cc1n(c2=O)Cc2cc3ccccc3nc2-1 (stereo not drawn) [MLS000766263] — lower, 29.3%
- COc1ccc(OC)c(-n2c(S)nnc2-c2ccc(O)cc2O)c1 [MLS000766628] — higher, 104%
- CC(C)Nc1ccc(Nc2ccnc3cc4ccccc4cc23)cc1 [MLS000766754] — lower, 83.9%
- COc1ccc(Nc2cc(C)nc(NCc3ccccc3)n2)cc1 [MLS000768693] — lower, 83%
- CCN(CC)CCOC(=O)c1ccc(N/C=C(/C#N)c2nc(-c3ccc4c(c3)OCO4)cs2)cc1 [MLS000769346] — higher, 100%
- O=C(Nc1nc(-c2ccccn2)cs1)c1cccc(-n2cnnn2)c1 [MLS000770597] — lower, 63.7%
- Oc1c(C(Nc2nccs2)c2ccc(C(F)(F)F)cc2)ccc2cccnc12 (stereo not drawn) [MLS000774842] — lower, 43.8%
- O=C(Nc1ccc(S(=O)(=O)N2CCOCC2)cc1)c1cc(-c2cc(Cl)ccc2O)n[nH]1 [MLS000778989] — lower, 73.1%
- COc1ccc(Cl)cc1NC(=O)c1cc(-c2cc(C)ccc2O)[nH]n1 [MLS000779126] — higher, 108%
- CCC(=O)Nc1cc(=O)[nH]c2nc(-c3ccc(Cl)cc3)nn12 [MLS000779210] — lower, 92%
- Cc1ccc(-c2cc(C(=O)Nc3ccc(S(=O)(=O)N4CC(C)OC(C)C4)cc3)[nH]n2)c(O)c1 (stereo not drawn) [MLS000779230] — lower, 89.2%
- Cc1ccc(-[n+]2c(-c3ccc(Cl)cc3)cn3c2CCC3)cc1 [MLS000780005] — lower, 90.4%
- O=C(Nc1ccc(C(F)(F)F)cc1)N1CCN(c2ccnc3cc(Cl)ccc23)CC1 [MLS000830170] — lower, 90.8%
- CCOC(=O)C1CCN(C(=O)c2cc(C(C)(C)C)nn2Cc2ccccc2)CC1 [MLS000860456] — lower, 90.8%
- O=C(Nc1ccc(N2CCN(c3ncccc3C(F)(F)F)CC2)nc1)c1cccs1 [MLS000862045] — lower, 92%
- Oc1cc(/C=C/c2c(F)cccc2Cl)nc2ccccc12 [MLS000862522] — higher, 102%
- COc1cc(O)c(C(CCN2CCCCC2)c2ccc(N(C)C)cc2)c(OC)c1 (stereo not drawn) [MLS000879496] — lower, 92.4%
- COc1cc(O)c(C(CCN2CCCC(C)C2)c2ccc3c(c2)OCO3)c(OC)c1 (stereo not drawn) [MLS000879506] — lower, 97.8%
- CCN1CCN(Cc2ccc(NC(=O)c3ccc(C)c(NC(=O)c4cc(-c5ccc(Br)cc5)[nH]n4)c3)cc2C(F)(F)F)CC1 [MLS000911560] — lower, 99%
- CCN1CCN(Cc2ccc(NC(=O)c3cc(NC(=O)c4cc(-c5ccc(OC)cc5)n[nH]4)cc(OC)c3)cc2C(F)(F)F)CC1 [MLS000911571] — lower, 97%
- CCN1CCN(Cc2ccc(NC(=O)c3cc(NC(=O)c4cc5cccc(OC)c5o4)cc(OC)c3)cc2C(F)(F)F)CC1 [MLS000911573] — lower, 94.8%
- CCN1CCN(Cc2ccc(NC(=O)c3cc(NC(=O)c4cncc(-c5ccc(C#N)cc5)c4)cc(OC)c3)cc2C(F)(F)F)CC1 [MLS000911575] — higher, 99.9%
- COc1ccccc1-c1cc(C(=O)N2CCN(S(=O)(=O)c3ccc(C)cc3)CC2)[nH]n1 [MLS000924750] — lower, 96.6%
- COc1ccc(-n2nc(C(=O)NCC(=O)N3CCN(c4ccccc4OC)CC3)c3ccccc3c2=O)c(OC)c1 [MLS000936211] — lower, 90.4%
- CCC(=O)N1CCc2cc(Br)cc(S(=O)(=O)N3CCCCC3CC)c21 (stereo not drawn) [MLS000936752] — lower, 90.3%
- COc1cc(NC(=O)c2cc([N+](=O)[O-])ccc2NC(=O)CNC2CCCCC2)cc(OC)c1 [MLS000950380] — higher, 109%
- COc1cc(NC(=O)c2cc([N+](=O)[O-])ccc2NC(=O)CNC2CCCCC2C)cc(OC)c1 (stereo not drawn) [MLS000950459] — lower, 90.2%
- Cc1ccc(S(=O)(=O)N2CCN(/C(S)=N/Cc3ccc4c(c3)OCO4)CC2)cc1 [MLS001002637] — lower, 97.3%
- COc1cc(C(=O)OCC(=O)N2CCCCC2C)cc(NC(=O)c2cccs2)c1OC (stereo not drawn) [MLS001003405] — lower, 97.3%
- CCOc1ccc(C(C)NC(S)=NC2CCCCC2)cc1OCC (stereo not drawn) [MLS001007596] — lower, 95.1%
- CC(C)CCN(CCC(C)C)CC(O)Cn1c2ccccc2c(=O)c2ccccc21 (stereo not drawn) [MLS001030199] — lower, 88.6%
